Consider 15 molecules from ChEMBL document CHEMBL3817752, “Antimycobacterial activity of new N(1)-[1-[1-aryl-3-[4-(1H-imidazol-1-yl)phenyl]-3-oxo]propyl]-pyridine-2-carboxamidrazone derivatives” (Bioorg Med Chem Lett, 2016).

Values after ≈ are worked out from the molar mass of the structure shown.

The assay has as its system Mycobacterium tuberculosis variant bovis. The assay can be described thus: Antimycobacterial activity against Mycobacterium bovis NCTC 10772 after 7 days by resazurin microtiter assay. The class given is functional. To be noted: NCTC 10772, 168 h. In general terms: The colour change of resazurin is a common sign of viable cells or microbes.
One may read the MIC as the least concentration at which growth counts as inhibited. Higher therefore signals a less susceptible organism. `N/C(=N/NC(CC(=O)c1ccc(-n2ccnc2)cc1)c1cccc(F)c1)c1ccccn1` (stereo not given) yielded an MIC of 18.7 µM (≈ 8.01 µg/mL).

`N/C(=N/NC(CC(=O)c1ccc(-n2ccnc2)cc1)c1ccccc1)c1ccccn1` (stereo not given): 39 µM (≈ 16 µg/mL) was the least that counted as inhibitory (MIC).

Turning to `N/C(=N/NC(CC(=O)c1ccc(-n2ccnc2)cc1)c1ccc([N+](=O)[O-])cc1)c1ccccn1` (stereo not given), 35.1 µM (≈ 16 µg/mL) was the least that counted as inhibitory (MIC).

`N/C(=N/NC(CC(=O)c1ccc(-n2ccnc2)cc1)c1ccccc1[N+](=O)[O-])c1ccccn1` (stereo not given) came in with an MIC of 17.6 µM (≈ 8.02 µg/mL).

The molecule `N/C(=N/NC(CC(=O)c1ccc(-n2ccnc2)cc1)c1ccccc1Br)c1ccccn1` (stereo not given) yielded an MIC of 32.7 µM (≈ 16 µg/mL).

As to `N/C(=N/NC(CC(=O)c1ccc(-n2ccnc2)cc1)c1ccccc1Cl)c1ccccn1` (stereo not given), the MIC worked out at 18 µM (≈ 8.01 µg/mL).

`N/C(=N/NC(CC(=O)c1ccc(-n2ccnc2)cc1)c1ccc(Br)cc1)c1ccccn1` (stereo not given) displayed an MIC of 8.2 µM (≈ 4.01 µg/mL).

`N/C(=N/NC(CC(=O)c1ccc(-n2ccnc2)cc1)c1ccc(Cl)cc1)c1ccccn1` (stereo not given) registered an MIC of 18 µM (≈ 8.01 µg/mL).

`N/C(=N/NC(CC(=O)c1ccc(-n2ccnc2)cc1)c1ccccc1F)c1ccccn1` (stereo not given) registered an MIC of 18.7 µM (≈ 8.01 µg/mL).

In turn, `N/C(=N/NC(CC(=O)c1ccc(-n2ccnc2)cc1)c1ccc(F)cc1)c1ccccn1` (stereo not given) yielded an MIC of 18.7 µM (≈ 8.01 µg/mL).

Regarding `N/C(=N/NC(CC(=O)c1ccc(-n2ccnc2)cc1)c1cccc([N+](=O)[O-])c1)c1ccccn1` (stereo not given), the MIC was determined as 17.6 µM (≈ 8.02 µg/mL).

Turning to `N/C(=N/NC(CC(=O)c1ccc(-n2ccnc2)cc1)c1cccc(Br)c1)c1ccccn1` (stereo not given), it took 16.3 µM (≈ 7.98 µg/mL) to inhibit growth (MIC).

As for `N/C(=N/NC(CC(=O)c1ccc(-n2ccnc2)cc1)c1cccc(Cl)c1)c1ccccn1` (stereo not given), the minimal inhibitory concentration (MIC) stood at 18 µM (≈ 8.01 µg/mL).

As to `N/C(=N/NC(CC(=O)c1ccc(-n2ccnc2)cc1)c1ccc(Cl)cc1Cl)c1ccccn1` (stereo not given), 9 µM (≈ 4.31 µg/mL) was the least that counted as inhibitory (MIC).

`NNC(=O)c1ccncc1` [ISONIAZID] gave an MIC of 7.3 µM (≈ 1 µg/mL).
